# Test system: excitatory behavior induced by spinal intrathecal injection of FeCl2 in mice
# Test: Effects of drugs on the excitatory behavior induced by spinal intrathecal injection of FeCl2 in mice
# Type: in vivo
# Details: for Percent inhibition (%): inhibition of mean behavioral score versus saline, 100 mg/kg orally 30 min. prior to FeCl2 injection, mice; for Average score, administration of compound (100 mg/kg): male Slc:ICP mice (5 weeks), 100 mg/kg orally 30 min. prior to FeCl2 (5 μl of 50 mM, intrathecal), observed 15 min. to 1 hr., score 0 normal to 5 death
# Protocol: Effects of drugs on the excitatory behavior induced by spinal intrathecal injection of FeCl2 in mice Male Slc:ICP mice (5 weeks) were used. Each group consisted of 10 mice. 5 μl of 50 mM FeCl2 in saline was injected into spinal subarchnoid space between the 1st sacral and the 6th lumbar segment, the behavioral responses were observed from 15 min. to 1 hr. after the intrathecal injection of FeCl2 and scored as follows. |Score Behavioral responses |0: normal (no abnormal behavior) |1: vigorously biting lower abdomen or lower | extremities |2: a) extremely biting lower body with rolling | b) hyperreactivity and […] to external stimuli | c) tremor | at least one of above three behavioral changes were | observed |3: clonic convulsion |4: tonic convulsion or paralysis of lower extremities. |5: death The test compounds (100 mg/kg) were orally administered 30 min. prior to FeCl2 injection.
SMILES,Percent inhibition (%),"Average score, administration of compound (100 mg/kg)"
"CCn1cc(C=Cc2nc3c(s2)NCCC3)nc1-c1ccccc1 [Example 6, 2-{2-(1-Ethyl-2-phenylimidazole-4-yl)ethenyl}-4,5,6,7-tetrahydrothiazolo[5,4-b]pyridine]",97.9,0.1
"Cc1ccc(-c2nc3c(s2)NCCC3)cc1N.Cl.Cl [Example 3, 2-(3-Amino-4-methylphenyl)-4,5,6,7-tetrahydrothiazolo[5,4-b]pyridine dihydrochloride]",80.9,0.9
"COc1cccc(C=Cc2nc3c(s2)NCCC3)c1OC [Example 1, 2-(2,3-Dimethoxystyryl)-4,5,6,7-tetrahydrothiazolo[5,4-b]pyridine]",82.6,0.8
"Cl.Cl.Cn1cnc(C=Cc2nc3c(s2)NCCC3)c1 [Example 5, 2-{2-(1-Methylimidazole-4-yl)ethenyl}-4,5,6,7-tetrahydrothiazolo[5,4-b]pyridine dihydrochloride]",91.3,0.4
"Cc1ccc(-c2nc3c(s2)NCCC3)cc1N [Example 2, 2-(3-Amino-4-methylphenyl)-4,5,6,7-tetrahydrothiazolo[5,4-b]pyridine]",85.1,0.7
